{"source": "patent US20130012389A1", "about": "“Substituted Pyridazines Having Herbicidal Action” (BASF SE, priority 2010, published 2013)", "key": {"CHEAL": {"tested_on": "CHEAL", "experiment": "greenhouse experiment, post-emergence treatment, herbicidal activity against CHEAL", "type": "in vivo, Chenopodium album", "conditions": "application rate 0.5 kg/ha, post-emergence method; scale from 0 to 100", "from_the_text": "(§1) The seeds of the test plants were sown separately for each species. For the post-emergence treatment, the test plants were first grown to a height of 3 to 15 cm, depending on the plant habit, and only then treated with the active ingredients which had been suspended or emulsified in water. For this purpose, the test plants were either sown directly and grown in the same containers, or they were first grown separately as seedlings and transplanted into the test containers a few days prior to treatment. Depending on the species, the plants were kept at 10-25° C. or 20-35° C. The test period extended over 2 to 4 weeks. During this time, the plants were tended, and their response to the individual treatments was evaluated. Evaluation was carried out using a scale from 0 to 100. 100 means no emergence of the plants, or complete destruction of at least the aerial moieties, and 0 means no damage, or normal course of growth. A good herbicidal activity is given at values of at least 70 and a very good herbicidal activity is given at values of at least 85. The plants used in the greenhouse experiments belonged to the following species: [table]"}, "AMARE": {"tested_on": "AMARE", "experiment": "greenhouse experiment, post-emergence treatment, herbicidal activity against AMARE", "type": "in vivo, Amaranthus retroflexus", "conditions": "application rate 0.5 kg/ha, post-emergence method; scale from 0 to 100", "from_the_text": "as §1"}}, "data": [{"smiles": "O=c1oc2nccnc2c(O)c1-c1cc(Cl)cc(N2CCOCC2)c1C(F)(F)F", "note": "[1-4, 7-[5-chloro-3-morpholino-2-(trifluoromethyl)phenyl]-8-hydroxy-pyrano[2,3-b]pyrazin-6-one]", "values": [{"measurement": "herbicidal activity against CHEAL", "setting": "CHEAL", "result": "very good herbicidal activity (a very good herbicidal activity is given at values of at least 85)"}, {"measurement": "herbicidal activity against AMARE", "setting": "AMARE", "result": "very good herbicidal activity (a very good herbicidal activity is given at values of at least 85)"}]}]}
